Assay [1] has as its target T1, full-length beta-Catenin (Uniprot ID P35222) (Homo sapiens, UniProt P35222).
T1 construct: 10 nM full-length beta-Catenin (Uniprot ID P35222)
T1 sequence (P35222 1-781): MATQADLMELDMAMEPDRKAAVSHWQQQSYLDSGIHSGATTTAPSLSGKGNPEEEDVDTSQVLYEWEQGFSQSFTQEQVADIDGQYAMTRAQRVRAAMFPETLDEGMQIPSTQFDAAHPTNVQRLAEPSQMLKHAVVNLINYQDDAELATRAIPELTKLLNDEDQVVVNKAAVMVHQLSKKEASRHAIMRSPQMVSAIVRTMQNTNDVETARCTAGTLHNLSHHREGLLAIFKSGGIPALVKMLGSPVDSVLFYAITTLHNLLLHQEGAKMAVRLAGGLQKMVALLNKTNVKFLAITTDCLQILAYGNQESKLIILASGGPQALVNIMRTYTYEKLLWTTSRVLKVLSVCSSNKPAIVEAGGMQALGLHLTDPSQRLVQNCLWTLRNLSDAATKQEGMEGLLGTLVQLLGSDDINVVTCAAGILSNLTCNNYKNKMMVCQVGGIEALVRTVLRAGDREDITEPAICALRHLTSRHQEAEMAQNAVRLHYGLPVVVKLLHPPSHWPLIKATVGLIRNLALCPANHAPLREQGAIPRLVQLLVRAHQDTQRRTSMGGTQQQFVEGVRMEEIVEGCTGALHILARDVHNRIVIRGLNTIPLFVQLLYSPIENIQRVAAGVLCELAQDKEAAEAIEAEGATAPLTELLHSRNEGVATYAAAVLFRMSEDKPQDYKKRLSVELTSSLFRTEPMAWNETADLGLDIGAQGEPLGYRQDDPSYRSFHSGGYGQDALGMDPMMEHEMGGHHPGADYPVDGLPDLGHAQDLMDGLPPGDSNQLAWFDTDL
The experiment in a line: Fluorescence polarization IC50 (beta-catenin / 5FAM-TCF4 10-53 competition). It is filed as binding. Particulars: fluorescence polarization; read-out: beta-Catenin FP IC50.

The target in assay [2] is T2, beta-catenin/TCF4 engagement (Homo sapiens, UniProt P35222).
T2 construct: expressed in transfected cells; host or cells: HEK293
T2 sequence (P35222 1-781): T1 sequence (P35222 1-781)
The experiment in a line: Nano-BRET target engagement assay (B-cat-Halo & TCF4-Luc in HEK293 cells). Format: cell-based. Particulars: absolute IC50; read-out: NanoBRET Abs IC50.

Bounds are passed on as bounds.

Regarding `CC(=O)N1CCC[C@]12CCCCCCC1(CCCCCCCCOC(=O)N3CC[C@@](C(=O)N[C@@H](Cc4ccsc4)C(=O)N[C@@H](Cc4csc5ccccc45)C(=O)N[C@H](C(N)=O)C(C)C)(C3)NC(=O)[C@H]([C@@H](C)O)NC(=O)[C@H](Cc3ccccc3)NC(=O)[C@H](C)NC(=O)[C@H](CCCCNC(C)C)NC(=O)[C@H](CN(CC(=O)O)CC(F)(F)F)NC(=O)[C@H](CC(=O)O)NC1=O)NC(=O)[C@H](CC(C)(C)C)NC(=O)[C@H](CC(=O)O)NC2=O` (stereo partly drawn) [I-1770, Ac-PL3-Asp-Npg-B5-Asp-TfeGA-iPrLys-Ala-Phe-Thr-PyrS2-3Thi-BztA-Val-NH2], the IC50 in assay [1] is 0.175 µM; in assay [2], above 20 µM.
Taken in the same sequence, the figures for `CC(=O)N1CCC[C@]12CC=CCCCC1(CCCC=CCCCOC(=O)N3CC[C@@](C(=O)N[C@@H](Cc4ccsc4)C(=O)N[C@@H](Cc4csc5ccccc45)C(=O)N[C@@H](CCC(N)=O)C(N)=O)(C3)NC(=O)[C@H](CC(C)C)NC(=O)[C@H](Cc3ccccc3)NC(=O)[C@H](C)NC(=O)[C@H](C)NC(=O)[C@H](CN(CC(=O)O)CC(F)(F)F)NC(=O)[C@H](CC(=O)O)NC1=O)NC(=O)[C@H](CCC(C)(C)C)NC(=O)[C@H](CC(=O)O)NC2=O` (stereo partly drawn) [I-1772, Ac-PL3-Asp-Npa-B5-Asp-TfeGA-Ala-Ala-Phe-Leu-PyrS2-3Thi-BztA-Gln-NH2] were 0.014 µM and 6.8 µM.
Taken in the same sequence, the figures for `CC(=O)N1CCC[C@]12CC=CCCCC1(CCCC=CCCCOC(=O)N3CC[C@@](C(=O)N[C@@H](Cc4ccsc4)C(=O)N[C@@H](Cc4csc5ccccc45)C(=O)N[C@@H](CCC(N)=O)C(N)=O)(C3)NC(=O)[C@H](CC(C)(C)C)NC(=O)[C@H](Cc3ccccc3)NC(=O)[C@H](C)NC(=O)[C@H](C)NC(=O)[C@H](CN(CC(=O)O)CC(F)(F)F)NC(=O)[C@H](CC(=O)O)NC1=O)NC(=O)[C@H](CC(C)(C)C)NC(=O)[C@H](CC(=O)O)NC2=O` (stereo partly drawn) [I-1773, Ac-PL3-Asp-Npg-B5-Asp-TfeGA-Ala-Ala-Phe-Npg-PyrS2-3Thi-BztA-Gln-NH2] were 0.032 µM and 8.6 µM.
Taken in the same sequence, the figures for `CC(=O)N1CCC[C@]12CC=CCCCC1(CCCC=CCCCOC(=O)N3CC[C@@](C(=O)N[C@@H](Cc4ccsc4)C(=O)N[C@@H](Cc4csc5ccccc45)C(=O)N[C@@H](CCC(N)=O)C(N)=O)(C3)NC(=O)[C@H](CC3CCCCC3)NC(=O)[C@H](Cc3ccccc3)NC(=O)[C@H](C)NC(=O)[C@H](C)NC(=O)[C@H](CN(CC(=O)O)CC(F)(F)F)NC(=O)[C@H](CC(=O)O)NC1=O)NC(=O)[C@H](CC(C)(C)C)NC(=O)[C@H](CC(=O)O)NC2=O` (stereo partly drawn) [I-1774, Ac-PL3-Asp-Npg-B5-Asp-TfeGA-Ala-Ala-Phe-Cha-PyrS2-3Thi-BztA-Gln-NH2] were 0.028 µM and 8.9 µM.
Consider `CCCC[C@@H]1NC(=O)[C@H](Cc2ccccc2)NC(=O)[C@H](C)NC(=O)[C@H](C)NC(=O)[C@H](CN(CC(=O)O)CC(F)(F)F)NC(=O)[C@H](CC(=O)O)NC(=O)C2(CCCC=CCCCOC(=O)N3CC[C@@](C(=O)N[C@@H](Cc4ccsc4)C(=O)N[C@@H](Cc4csc5ccccc45)C(=O)N[C@@H](CCC(N)=O)C(N)=O)(C3)NC1=O)CCCC=CC[C@]1(CCCN1C(C)=O)C(=O)N[C@@H](CC(=O)O)C(=O)N[C@@H](CC(C)(C)C)C(=O)N2` (stereo partly drawn) [I-1776, Ac-PL3-Asp-Npg-B5-Asp-TfeGA-Ala-Ala-Phe-nLeu-PyrS2-3Thi-BztA-Gln-NH2], for which the IC50 amounted to 0.017 µM in assay [1] and 10.5 µM in assay [2].
Taken in the same sequence, the figures for `CCCC[C@@H]1NC(=O)[C@H](CC(=O)O)NC(=O)[C@]2(CC=CCCCC3(CCCC=CCCCOC(=O)N4CC[C@@](C(=O)N[C@@H](Cc5ccsc5)C(=O)N[C@@H](Cc5csc6ccccc56)C(=O)N[C@@H](CCC(N)=O)C(N)=O)(C4)NC(=O)[C@H](CC(C)C)NC(=O)[C@H](Cc4ccccc4)NC(=O)[C@H](C)NC(=O)[C@H](C)NC(=O)[C@H](CN(CC(=O)O)CC(F)(F)F)NC(=O)[C@H](CC(=O)O)NC3=O)NC1=O)CCCN2C(C)=O` (stereo partly drawn) [I-1777, Ac-PL3-Asp-nLeu-B5-Asp-TfeGA-Ala-Ala-Phe-Leu-PyrS2-3Thi-BztA-Gln-NH2] were 0.008 µM and 8.7 µM.
Taken in the same sequence, the figures for `CC(=O)N1CCC[C@]12CC=CCCCC1(CCCC=CCCCOC(=O)N3CC[C@@](C(=O)N[C@@H](Cc4ccsc4)C(=O)N[C@@H](Cc4csc5ccccc45)C(=O)N[C@@H](CCC(N)=O)C(N)=O)(C3)NC(=O)[C@H](CCO)NC(=O)[C@H](Cc3ccccc3)NC(=O)[C@H](C)NC(=O)[C@H](C)NC(=O)[C@H](Cc3ccc(O)cc3)NC(=O)[C@H](CC(=O)O)NC1=O)NC(=O)[C@H](CC(C)(C)C)NC(=O)[C@H](CC(=O)O)NC2=O` (stereo partly drawn) [I-1783, Ac-PL3-Asp-Npg-B5-Asp-Tyr-Ala-Ala-Phe-Hse-PyrS2-3Thi-BztA-Gln-NH2] were 0.101 µM and above 20 µM.
Taken in the same sequence, the figures for `CC(=O)N1CCC[C@]12CC=CCCCC1(CCCC=CCCCOC(=O)N3CC[C@@](C(=O)N[C@@H](Cc4ccsc4)C(=O)N[C@@H](Cc4csc5ccccc45)C(=O)N[C@@H](CCC(N)=O)C(N)=O)(C3)NC(=O)[C@H](CCO)NC(=O)[C@H](Cc3ccccc3)NC(=O)[C@H](C)NC(=O)[C@H](C)NC(=O)[C@H](CCc3ccc(O)cc3)NC(=O)[C@H](CC(=O)O)NC1=O)NC(=O)[C@H](CC(C)(C)C)NC(=O)[C@H](CC(=O)O)NC2=O` (stereo partly drawn) [I-1786, Ac-PL3-Asp-Npg-B5-Asp-hTyr-Ala-Ala-Phe-Hse-PyrS2-3Thi-BztA-Gln-NH2] were 0.042 µM and above 20 µM.
Turning to `CC(=O)N1CCC[C@]12CC=CCCCC1(CCCC=CCCCOC(=O)N3CC[C@@](C(=O)N[C@@H](Cc4ccsc4)C(=O)N[C@@H](Cc4csc5ccccc45)C(=O)N[C@@H](CCC(N)=O)C(N)=O)(C3)NC(=O)[C@H](CC(N)=O)NC(=O)[C@H](Cc3ccccc3)NC(=O)[C@H](C)NC(=O)[C@H](C)NC(=O)[C@H](Cc3c[nH]c4ccccc34)NC(=O)[C@H](CC(=O)O)NC1=O)NC(=O)[C@H](CC(C)(C)C)NC(=O)[C@H](CC(=O)O)NC2=O` (stereo partly drawn) [I-1788, Ac-PL3-Asp-Npg-B5-Asp-Trp-Ala-Ala-Phe-Asn-PyrS2-3Thi-BztA-Gln-NH2], the IC50 in assay [1] was determined as 0.058 µM; in assay [2] it was 33.9 µM.
Consider `CC(=O)N1CCC[C@]12CC=CCCCC1(CCCC=CCCCOC(=O)N3CC[C@@](C(=O)N[C@@H](Cc4ccsc4)C(=O)N[C@@H](Cc4csc5ccccc45)C(=O)N[C@@H](CCC(N)=O)C(N)=O)(C3)NC(=O)[C@H](CC(N)=O)NC(=O)[C@H](Cc3ccccc3)NC(=O)[C@H](C)NC(=O)[C@H](C)NC(=O)[C@H](Cc3c(F)c(F)c(F)c(F)c3F)NC(=O)[C@H](CC(=O)O)NC1=O)NC(=O)[C@H](CC(C)(C)C)NC(=O)[C@H](CC(=O)O)NC2=O` (stereo partly drawn) [I-1790, Ac-PL3-Asp-Npg-B5-Asp-Pff-Ala-Ala-Phe-Asn-PyrS2-3Thi-BztA-Gln-NH2], for which the IC50 is 0.082 µM in assay [1] and 34.4 µM in assay [2].
Taken in the same sequence, the figures for `CC(=O)N1CCC[C@]12CC=CCCCC1(CCCC=CCCCOC(=O)N3CC[C@@](C(=O)N[C@@H](Cc4ccsc4)C(=O)N[C@@H](Cc4csc5ccccc45)C(=O)N[C@@H](CCC(N)=O)C(N)=O)(C3)NC(=O)[C@H](CCO)NC(=O)[C@H](Cc3ccccc3)NC(=O)[C@H](C)NC(=O)[C@H](C)NC(=O)[C@H](Cc3c(F)c(F)c(F)c(F)c3F)NC(=O)[C@H](CC(=O)O)NC1=O)NC(=O)[C@H](CC(C)(C)C)NC(=O)[C@H](CC(=O)O)NC2=O` (stereo partly drawn) [I-1791, Ac-PL3-Asp-Npg-B5-Asp-Pff-Ala-Ala-Phe-Hse-PyrS2-3Thi-BztA-Gln-NH2] were 0.182 µM and above 20 µM.
Taken in the same sequence, the figures for `CC(=O)N1CCC[C@]12CC=CCCCC1(CCCC=CCCCOC(=O)N3CC[C@@](C(=O)N[C@@H](Cc4ccsc4)C(=O)N[C@@H](Cc4csc5ccccc45)C(=O)N[C@@H](CCC(N)=O)C(N)=O)(C3)NC(=O)[C@H](CCO)NC(=O)[C@H](Cc3ccccc3)NC(=O)[C@H](C)NC(=O)[C@H](C)NC(=O)[C@H](Cc3c[nH]cn3)NC(=O)[C@H](CC(=O)O)NC1=O)NC(=O)[C@H](CC(C)(C)C)NC(=O)[C@H](CC(=O)O)NC2=O` (stereo partly drawn) [I-1793, Ac-PL3-Asp-Npg-B5-Asp-His-Ala-Ala-Phe-Hse-PyrS2-3Thi-BztA-Gln-NH2] were 0.02 µM and above 20 µM.
`CC(=O)N1CCC[C@]12CC=CCCCC1(CCCC=CCCCOC(=O)N3CC[C@@](C(=O)N[C@@H](Cc4ccsc4)C(=O)N[C@@H](Cc4csc5ccccc45)C(=O)N[C@@H](CCC(N)=O)C(N)=O)(C3)NC(=O)[C@H](CCO)NC(=O)[C@H](Cc3ccccc3)NC(=O)[C@H](C)NC(=O)[C@H](C)NC(=O)[C@H](Cc3c[nH]cn3)NC(=O)[C@H](CC(=O)O)NC1=O)NC(=O)[C@H](CC(C)(C)C)NC(=O)[C@H](CC(=O)O)NC2=O` (stereo partly drawn) [I-1794, Ac-PL3-Asp-Npg-B5-Asp-His-Ala-Ala-Phe-Hse-PyrS2-3Thi-BztA-Gln-NH2]: the IC50 is 0.052 µM in assay [1] and 37.7 µM in assay [2].

The term IC50 denotes the concentration that inhibits the measured activity by half.

(Values after patent US20240116985A1, “STAPLED PEPTIDES AND METHODS THEREOF” (priority 2020, published 2024).)
